Measurements as given in ChEMBL document CHEMBL1131176, “Structure-based enhancement of boronic acid-based inhibitors of AmpC beta-lactamase” (J Med Chem, 1998).

Columns and labels:
Beta-lactamase [1] = target: T1, Beta-lactamase (Escherichia coli K-12, UniProt P00811); test: Inhibitory activity against Escherichia coli AmpC beta-lactamase.
Beta-lactamase [2] = target: T1, Beta-lactamase; test: Compound was tested for its specificity against AmpC beta-lactamase
Chymotrypsinogen A = Chymotrypsinogen A (Bos taurus, UniProt P00766); test: Compound was tested for its specificity against alpha-chymotrypsin
Homo sapiens = species: Homo sapiens; test: Compound was tested for its specificity against Elastase

T1 sequence (P00811 whole entry): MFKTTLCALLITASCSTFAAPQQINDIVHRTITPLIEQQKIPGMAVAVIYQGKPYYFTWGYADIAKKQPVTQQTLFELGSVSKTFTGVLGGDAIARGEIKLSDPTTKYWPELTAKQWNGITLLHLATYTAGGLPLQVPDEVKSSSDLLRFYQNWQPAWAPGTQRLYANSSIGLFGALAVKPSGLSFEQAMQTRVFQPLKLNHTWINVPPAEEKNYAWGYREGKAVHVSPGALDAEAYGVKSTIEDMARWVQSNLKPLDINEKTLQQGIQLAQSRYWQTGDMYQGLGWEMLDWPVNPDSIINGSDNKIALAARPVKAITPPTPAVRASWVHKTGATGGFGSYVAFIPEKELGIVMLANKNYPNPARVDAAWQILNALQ

SMILES	Ki (Beta-lactamase [1])	IC50 (Beta-lactamase [2])	IC50 (Chymotrypsinogen A)	IC50 (Homo sapiens)
OB(O)c1ccc(-c2ccc(B(O)O)cc2)cc1	0.2 µM	–	–	–
O=Cc1ccccc1B(O)O	25.3 µM	–	–	–
OB(O)c1cc2ccccc2c2ccccc12	7 µM	–	–	–
OB(O)[C@@H]1CCOC1	–	5 µM	> 200 µM	> 200 µM
OB(O)c1ccco1	> 100 µM	–	–	–
OB(O)c1ccc(Br)cc1	3.6 µM	–	–	–
O=Cc1ccsc1B(O)O	3.8 µM	–	–	–
OB(O)c1cc2ccccc2s1	–	–	5 µM	–
O=C(O)c1cccc(B(O)O)c1	> 100 µM	–	–	–
CCCCB(O)O [BUTYL BORONIC ACID]	> 100 µM	–	–	–
Cc1ccc(B(O)O)cc1 [TOLYL BORONIC ACID]	5.4 µM	–	–	–

Now from value to compound:

Ki (Beta-lactamase [1])	IC50 (Beta-lactamase [2])	IC50 (Chymotrypsinogen A)	IC50 (Homo sapiens)	SMILES
1.6 µM	–	–	–	CC(=O)c1ccc(B(O)O)s1
2.9 µM	–	–	–	O=Cc1ccc(B(O)O)cc1
3.9 µM	–	–	–	OB(O)c1ccc(B(O)O)cc1
–	–	> 200 µM	200 µM	OB(O)c1cccs1
0.41 µM	2 µM	> 100 µM	200 µM	OB(O)c1ccc(Cl)s1
0.22 µM	0.6 µM	14 µM	–	OB(O)c1cc2ccccc2o1
3 µM	–	–	–	OB(O)c1ccc(C(F)(F)F)cc1
5.9 µM	–	–	–	COc1ccc(B(O)O)cc1
1.1 µM	5 µM	> 200 µM	> 200 µM	OB(O)c1cccc(C(F)(F)F)c1
22.1 µM	–	–	–	OB(O)c1ccsc1
6.4 µM	–	–	–	OB(O)c1ccc(F)cc1
12 µM	–	–	–	OB(O)c1cccc2ccccc12
> 100 µM	–	–	–	OB(c1ccccc1)c1ccccc1 [DIPHENYL BORINIC ACID]
1.3 µM	5 µM	> 100 µM	50 µM	CN(C)c1cccc2c(S(=O)(=O)Nc3cccc(B(O)O)c3)cccc12 [M(DANSYLAMIDOPHENYL)BORONIC ACID]
10.5 µM	–	–	–	OB(O)c1ccccc1 [PHENYLBORONIC ACID]
